Data reported in patent CN103301132A, “川芎嗪仲、叔醇类衍生物及其在制药中的应用” (Nanjing University of Chinese Medicine, priority 2013, dated 2013).
Read-outs that look alike come from different tables or passages of the source.

What was measured:
[1] = Further study of other liguzinediol derivatives (activity, arrhythmia); details: no details given
[2] = biological target: T1, SERCA2a in cardiomyocytes [心肌细胞内的SERCA2a靶点] (Homo sapiens, UniProt P16615); details: mechanism study; cited from earlier work
T1 construct: 心肌细胞内的SERCA2a靶点; endogenous in cells

[3] = system: isolated rat heart [Isolated Rat Heart]; details: pharmacological studies; cited from earlier work
[4] = cited from earlier work
[5] = Pharmacokinetics in Sprague-Dawley rats (plasma, HPLC); assay type: in vivo; details: SD rat; for AUC / half-life: gavage and tail vein dosing
[6] = 10 mg/kg, low dose (doses 10, 20, 40 mg·kg-1), route not given
[7] = 20 mg/kg, middle dose (doses 10, 20, 40 mg·kg-1), route not given
[8] = high dose (doses 10, 20, 40 mg·kg-1), route not given

T1 sequence (P16615 1-997 isoform P16615-2): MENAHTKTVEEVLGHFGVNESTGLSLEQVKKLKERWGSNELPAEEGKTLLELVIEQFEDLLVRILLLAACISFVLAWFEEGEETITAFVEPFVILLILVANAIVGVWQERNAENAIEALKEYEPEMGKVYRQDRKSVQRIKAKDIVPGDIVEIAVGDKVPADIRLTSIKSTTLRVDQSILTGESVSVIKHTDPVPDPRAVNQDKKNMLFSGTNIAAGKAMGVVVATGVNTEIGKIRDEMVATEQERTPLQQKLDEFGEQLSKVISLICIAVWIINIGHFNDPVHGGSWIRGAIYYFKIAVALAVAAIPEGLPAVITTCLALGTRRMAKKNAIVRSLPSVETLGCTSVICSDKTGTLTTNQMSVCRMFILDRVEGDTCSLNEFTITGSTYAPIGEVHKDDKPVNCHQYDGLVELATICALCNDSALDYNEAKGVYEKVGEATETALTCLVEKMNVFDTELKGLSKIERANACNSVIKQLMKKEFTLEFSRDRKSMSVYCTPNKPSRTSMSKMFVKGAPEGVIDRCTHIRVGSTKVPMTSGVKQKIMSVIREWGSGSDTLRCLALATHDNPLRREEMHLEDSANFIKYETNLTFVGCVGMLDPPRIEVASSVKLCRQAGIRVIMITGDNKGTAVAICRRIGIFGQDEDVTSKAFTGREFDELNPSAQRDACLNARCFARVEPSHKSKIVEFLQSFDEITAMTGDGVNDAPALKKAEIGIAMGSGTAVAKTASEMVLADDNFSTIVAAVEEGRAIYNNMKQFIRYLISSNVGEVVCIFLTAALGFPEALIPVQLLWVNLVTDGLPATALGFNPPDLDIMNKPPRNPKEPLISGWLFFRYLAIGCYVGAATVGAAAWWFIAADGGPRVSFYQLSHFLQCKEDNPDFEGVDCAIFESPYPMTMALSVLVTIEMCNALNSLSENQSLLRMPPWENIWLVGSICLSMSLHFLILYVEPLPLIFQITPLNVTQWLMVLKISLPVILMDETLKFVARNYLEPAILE

Q: With `CCOCc1nc(C)c(COCC)nc1C` [2,5-二乙氧甲基-3,6-二甲基吡嗪] as the molecule, how does the arrhythmia [1] read?
A: Its arrhythmia is “会导致心律失常”.

Q: With `Cc1nc(CO)c(C)nc1CO` [liguzinediol, 2,5-二羟甲基-3,6-二甲基吡嗪] as the molecule, how does the “mechanism of positive inotropic effect” value [2] read?
A: Its value is “通过作用于心肌细胞内的SERCA2a靶点而发挥正性肌力作用”.

Q: And the arrhythmia side effect [3]?
A: Its arrhythmia side effect is “没有心律失常副作用”.

Q: And the positive inotropic effect [3]?
A: The positive inotropic effect was “明显的正性肌力作用”.

Q: And the half-life ([4]; in animals)?
A: Its half-life is 1.6 h.

Q: And the metabolic rate ([4]; in animals)?
A: The metabolic rate was “相对较快”.

Q: What about the glucuronide conjugate formation ([4]; in vivo) of the same molecule?
A: Its glucuronide conjugate formation is “很快地形成了葡萄糖醛酸结合物而排出体外”.

Q: What about the “oxidation of hydroxymethyl and side-chain methyl” value ([4]; in vivo) of the same molecule?
A: Its value is “容易被氧化成极性和水溶性较大的化合物而排出体外”.

Q: For `Cc1nc(C(=O)O)c(C)nc1C(=O)O` [3,6-二甲基-2,5-吡嗪二甲酸], which activity [1] is on record?
A: The activity was “明显下降”.

Q: With `COCc1nc(C)c(COC)nc1C` [2,5-二甲氧甲基-3,6-二甲基吡嗪] as the molecule, how does the arrhythmia [1] read?
A: The arrhythmia was “会导致心律失常”.

Q: With `CCC(O)c1nc(C)c(C(O)CC)nc1C` (stereo not drawn) [化合物2, 2,5-二-(1-羟基丙基)-3,6-二甲基吡嗪] as the molecule, how does the AUC [5, 6] read?
A: The AUC was 34000 ng·h/mL.

Q: And the half-life [5, 6]?
A: The half-life was 3.7 h.

Q: What about the AUC [5, 7] of the same molecule?
A: The AUC was 70000 ng·h/mL.

Q: What about the half-life [5, 7] of the same molecule?
A: The half-life was 3.6 h.

Q: What about the AUC [5, 8] of the same molecule?
A: Its AUC is 135000 ng·h/mL.

Q: And the half-life [5, 8]?
A: Its half-life is 3.5 h.

Q: And the clearance ([5]; low, middle and high doses, route not given)?
A: Its clearance is ~5 mL/min/kg.

Q: And the bioavailability ([5]; po, gavage and tail vein injection, 10, 20, 40 mg·kg-1)?
A: Its bioavailability is 90%.
